Experimental data as given in patent publication US5906922A, “Delivery of nucleic acids” (Commonwealth Scientific and Industrial Research Organisation, priority 1994, dated 1999).
Where a SMILES comes first, the peptide text is derived from it. The star is where a group is joined. NHC(CH2O-Palmitoyl)3 = CCCCCCCCCCCCCCCC(=O)OCC(COC(=O)CCCCCCCCCCCCCCC)(COC(=O)CCCCCCCCCCCCCCC)N*; X5 = CCCCCCCCCCCCCCCC(=O)OCC(CO)(COC(=O)CCCCCCCCCCCCCCC)N*; X4 = CCCCCCCCCCCC(=O)OCC(CO)(COC(=O)CCCCCCCCCCC)N*; X1 = CCCCCCCCCCCCCCCC(=O)OCC(CO)(CO)N*; NHC(CH2OH)3 = OCC(CO)(CO)N*

Tests used:
[1] = tested on: Cos 1 cells; assay: Transfection of pSVLCAT, CAT assay, Cos 1; format: cell-based, African Green Monkey; conditions: for CAT activity (mean): 25 μl lysate, 135 min 37° C.; for transfection, number of palmitates: R1-R4 experiment a, Cos 1, K2 A linker; for Transfection (CAT): Table 1, Cos 1, optimised level of agent
Description: To test the transfection properties of the lead compound K3ATP3 (VerafectinA3), whole uncut plasmid carrying the gene encoding CAT (chloramphenicol acetyl transferase) under the control of the SV40 late promoter, pSVLCAT (Cameron, F. H. and Jennings, P. A. (1989) PNAS 86, 9139-9143) was mixed with the test agent and put on Cos 1 cells under various conditions. After 48 hours of culture the level of secreted CAT was assayed from the culture medium.
Solution I: 1 μg Plasmid DNA in 500 μl Dulbeccos Modified Eagles Medium (DME)
Solution II: 0-20 μl VerafectinA3 (2.5 mg/ml 25% DMSO) in 500 μl DME, Vortex
Combine solution I and II, vortex briefly and incubate at room temperature for 10 min.
Add mix to washed cells in 60 mm tissue culture dishes (seeded 0.5×10^6 /dish previous day) for 6 hrs at 37° C., 5% C02. Add 2 ml DME+10% FCS for remainder of 48 hrs. Assay CAT levels in tissue culture medium (Sleigh, M. J. (1986) Anal. Biochem. 156.251-256).
a--Compare VerafectinA3 dissolved in DMSO or ethanol.
b--Compare VerafectinA3 on cells 6 hrs to overnight. VerafectinA3 at 10 mg/ml in 100% solvent was diluted to 2.5 mg/ml with water.
Transfection was carried out as for experiment 1. VerafectinA3 was left in contact with the cells for varying times.
Protocol was the same for the Verafectins as described above. Lipofectamine protocol was according to manufacturers instructions. Cos 1 cells were seeded at 5×10^5 /60 mm dish and adhered overnight in DME with 10% FCS.
Solution A: 0.5 μg pSVLCAT/60 mm dish.
Solution B: Lipofectamine 10 and 15 μl 2 mg/ml (mixed formulation 3:1 with DOPE).
OR; VerafectinA3 and VerafectinG2 20 μl 2 mM (2.8 and 2.3 mg/ml respectively) stock.
OR; VerafectinG2 was also tested with an equimolar amount of DOPE. VerafectinG2 and DOPE were mixed in DDME and vortexed for 30 seconds before use. Solutions A and B were combined before overlaying on washed cells.
The serum free incubation period in the presence of test agents and DNA was 6 hrs, then 1 ml DME+10% FCS was added. At 24 hours medium was changed to 2 ml fresh DME+10% FCS until harvest at 48 hrs.
(§1) Cell lines Cos 1 or CHO were transfected with 0.5 μg of pSVLCAT or 2 μg of pPGKlacZ plasmid using a range of concentrations of each transfection compound. The optimal concentration of compound, that is the concentration giving the highest level of CAT at 48 hours or the greatest percentage of lac z (β-galactosidase) staining cells at 24 hours was used to collate data for Table 1. As all compounds were not tested in a single experiment, absolute figures indicating transfection were not used. Rather, symbols are used to indicate the transfection efficiency relative to Lipofectamine (BRL), which was included as a control in all experiments. Table 1 thus indicates the relative efficiencies of a number of compounds in mediating the transfection of at least one cell type.
(§2) All test lipopeptide reagents were originally dissolved at 10 mM in 75% DMSO, and subsequently diluted with water to make a 2 mM stock stored at 4° C. Volumes of 2 mM stock lipopeptide ranging from 2 μl to 15 μl were diluted in 500 μl of DDME. 1 μg of plasmid pSVLCAT was separately diluted in 500 μl of DDME. Solutions were combined for 10-20 min at room temperature before adding to 500 μl of DDME in 60 mm dishes of subconfluent CHO cells (2×10^5 day-1) or Cos 1 cells (5×10^5 day-1); washed free of serum with DDME.
(§3) Cells were incubated for 6 hrs under standard conditions of 37° C. and 5% CO2 for 6 hours. 1.5 ml of DME/Hams+10% FCS (CHO) or DME+10% FCS (Cos 1) was added to the cells for overnight incubation. Fresh DME/Hams+10% FCS or DME+10% FCS was used to replace the medium for a further 24 hours prior to harvest. Cell lysates were prepared and assayed for CAT activity as described above. For Cos 1 cells, culture supernatants were assayed for CAT activity.
For transfection of pSVLCAT and subsequent assay of CAT enzyme, experiments "a" and "b" were carried out as described above.

[2] = tested on: CHO cells; assay: Transfection of pSVLCAT, CAT assay, CHO; format: cell-based, Chinese Hamster; conditions: for Transfection (CAT): Table 1, CHO, optimised level of agent
Description: Protocol was the same for Verafectin and Transfectam (see above) with the exception that 0.5 μg of pSVLCAT DNA was used /60 mm dish.
Lipofectamine protocol was according to manufacturer's instructions. 0.5 μg pSVLCAT/60 mm dish. CHO cells seeded 1×10^5 /60 mm dish and adhered overnight in DME/Hams medium with 10% FCS.
Transfectam 5 or 10 μl 1mg/400 μl stock solution.
Lipofectamine 5 or 10 μl 2 mg/ml (mixed formulation 3:1 with DOPE). VerafectinA3 (K3ATP3) and VerafectinG2 (K3G[Glycine]TP2) each at 5, 10 and 15 μl of 2 mM (2.8 and 2.3 mg/ml respectively) stock.
The serum free incubation period in the presence of test agents and DNA was 6 hours, then 1 ml DME/Hams+10% FCS was added. At 24 hrs the medium was changed to 2 ml of fresh DME/Hams+10% FCS until harvest at 48 hrs.
as §1, §2, §3
a. Using the standard transfection procedure described above, and 1 μg plasmid pSVLCAT, these formulations were tested on CHO cells at a single concentration equivalent to 10 μl of Verafectin A2 (2 mM) per sample and compared to unformulated compound and Lipofectamine in the same cell type. CAT production was assayed 48 hours after transfection.

[3] = tested on: Cos 1 cells; assay: β-gal microtitre plate transfection assay, Cos 1; format: cell-based, African Green Monkey
Excerpt: For experiment "c", a plasmid pPGKlaczNLS encoding β-galactosidase under the control of the mouse PGK promoter (kind gift from G.Hannan) or pSVGAL which utilises the SV40 early promoter (Sleigh, M. J. and Lockett, T. J. (1985). EMBO J. 4:3831-3837),was transfected. This experiment and assay were modified from Feigner et al J. Biol Chem. 269(4) 2550-2561 1994. This protocol allows the simultaneous assessment of 72 different combinations and concentrations of DNA and test agent in a microtitre tray. […] Cytotoxicity was assessed using alamar blue, and a sample graph is shown for experiment a.
Compounds were tested for their ability to transfect either the CAT or β-gal gene carried on plasmids, and assayed as described above.
(§4) The ratio of [lipid]/[DNA] at which that maximum was achieved is shown. Experiments shown were carried out in Cos 1 cells, as described above. MTS OD is a measure of relative viabilility of the cells exposed to the different agents, a higher value indicates greater cell viability. * These points were taken from a separate experiment and some slight variation between absolute numbers should be expected between experiments.
Each of these compounds was tested for transfection ability and cytotoxicity on standard cell lines using standard conditions as described above.
(§5) The ratio of [lipid]/[DNA] at which that maximum was achieved is shown in brackets for the two different cell types in the following order; (Cos 1) (CHO). Experiments shown were carried out in Cos 1 cells, as described above. Viability was measured with the dye alamar blue . # Denotes compounds tested in a separate experiment. * Viability in this experiment was determined with MTS. OD is a measure of relative viability of the cells exposed to the different agents, and as with alamar blue, a higher value indicates greater cell viability.

[4] = tested on: Cos 1 cells; format: cell-based, African Green Monkey
Description: Relative levels of cytotoxicity were also assayed in subsequent experiments using the dye MTS, marketed as Cell titre 96 Aqueous (Promega).
as §4, §5

[5] = "x" peptide experiment b, Cos 1
[6] = "x" peptide experiment a, CHO, 25 μl lysate, 20 min assay at 37° C., optimal level

## CCCCCCCCCCCCCCCC(=O)OCC(CO)(COC(=O)CCCCCCCCCCCCCCC)NC(=O)[C@H](C)NC(=O)[C@@H](N)CCCCN [K1ATP2]
[1]; [5]
  CAT activity (mean): 12670 cpm

## CCCCCCCCCCCCCCCC(=O)OCC(CO)(CO)NC(=O)[C@H](C)NC(=O)[C@H](CCCCN)NC(=O)[C@@H](N)CCCCN [K2ATP1]
[1]
  transfection, number of palmitates: very inefficient

## CCCCCCCCCCCCCCCC(=O)OCC(CO)(COC(=O)CCCCCCCCCCCCCCC)NC(=O)[C@H](C)NC(=O)[C@H](CCCCN)NC(=O)[C@@H](N)CCCCN [K2ATP2]
[1]; [5]
  transfection with second lysine relative to single K: ~5 times
  CAT activity (mean): 62,215 cpm
[1]; "y" linker experiment b, Cos 1
  transfection, linkers A and L compared: very similar activities
[2]; [6]
  CAT activity (mean): 5418 cpm

## CCCCCCCCCCCCCCCC(=O)OCC(COC(=O)CCCCCCCCCCCCCCC)(COC(=O)CCCCCCCCCCCCCCC)NC(=O)[C@H](C)NC(=O)[C@H](CCCCN)NC(=O)[C@@H](N)CCCCN [K2ATP3]
[1]
  transfection, number of palmitates: high levels of transfection

## CCCCCCCCCCCCCCCC(=O)OCC(CO)(COC(=O)CCCCCCCCCCCCCCC)NC(=O)[C@H](CCCCN)NC(=O)[C@H](CCCCN)NC(=O)[C@@H](N)CCCCN [K2KTP2]
[1]; R1-R4 experiment d, Cos 1, lysine linker
  transfection, dipalmitate versus tripalmitate: significantly less active than the tripalmitate molecule

## CCCCCCCCCCCC(=O)OCC(CO)(COC(=O)CCCCCCCCCCC)NC(=O)[C@H](C)NC(=O)[C@H](CCCCN)NC(=O)[C@H](CCCCN)NC(=O)[C@@H](N)CCCCN [K3ATL2] (H-KKKA-X4)
[3]; Table 2, Cos 1
  ratio [lipid]/[DNA] at which maximum was achieved: 0.69
[3]; Table 2, Cos 1, highest reading of 72 conditions
  units β-gal: 1.06 × 10^-5 units
[3]; Table 3, Cos 1
  ratio [lipid]/[DNA] at which maximum was achieved: .69
[3]; Table 3, Cos 1, highest reading of 72 conditions
  β-gal (Cos 1): 1.06 × 10^-5
[4]
  MTS OD490-655: 1.554
  Viability (Cos 1): 1.55

## C[C@H](NC(=O)[C@H](CCCCN)NC(=O)[C@H](CCCCN)NC(=O)[C@@H](N)CCCCN)C(=O)NC(CO)(CO)CO [K3ATP0] (H-KKKA-{NHC(CH2OH)3})
[1]
  Transfection (CAT): -

## CCCCCCCCCCCCCCCC(=O)OCC(CO)(COC(=O)CCCCCCCCCCCCCCC)NC(=O)[C@H](C)NC(=O)[C@H](CCCCN)NC(=O)[C@H](CCCCN)NC(=O)[C@@H](N)CCCCN [K3ATP2, trilysine alanine tris dipalmitate]
[1]
  Transfection (CAT): +/-
[2]; CHO, unformulated
  CAT levels relative to Lipofectamine, non-liposome formulation: around 5%
[2]; R1-R4 experiment e, CHO
  CAT activity (mean): 984 cpm
[2]
  Transfection (CAT): +/-

## NCCCC[C@H](NC(=O)[C@H](CCCCN)NC(=O)[C@@H](N)CCCCN)C(=O)NCC(=O)NC(CO)(CO)CO [K3GTP0] (H-KKKG-{NHC(CH2OH)3})
[1]
  Transfection (CAT): -

## CCCCCCCCCCCCCCCC(=O)OCC(CO)(CO)NC(=O)CNC(=O)[C@H](CCCCN)NC(=O)[C@H](CCCCN)NC(=O)[C@@H](N)CCCCN [K3GTP1] (H-KKKG-X1)
[1]
  Transfection (CAT): +
[2]
  Transfection (CAT): +

## CCCCCCCCCCCCCCCC(=O)OCC(COC(=O)CCCCCCCCCCCCCCC)(COC(=O)CCCCCCCCCCCCCCC)NC(=O)CNC(=O)[C@H](CCCCN)NC(=O)[C@H](CCCCN)NC(=O)[C@@H](N)CCCCN [K3GTP3] (H-KKKG-{NHC(CH2O-Palmitoyl)3})
[1]
  Transfection (CAT): +/-
[2]
  Transfection (CAT): +

## CCCCCCCCCCCCCCCC(=O)OCC(CO)(COC(=O)CCCCCCCCCCCCCCC)NC(=O)[C@H](C)NC(=O)[C@H](CCCCN)NC(=O)[C@H](CCCCN)NC(=O)[C@H](CCCCN)NC(=O)[C@@H](N)CCCCN [K4ATP2] (H-KKKKA-X5)
[1]
  Transfection (CAT): +

## CCCCCCCCCCCCCCCC(=O)OCC(CO)(COC(=O)CCCCCCCCCCCCCCC)NC(=O)[C@H](C)NC(=O)[C@H](CCCCN)NC(=O)[C@H](CCCCN)NC(=O)[C@H](CCCCN)NC(=O)[C@H](CCCCN)NC(=O)[C@@H](N)CCCCN [K5ATP2] (H-KKKKKA-X5)
[2]; [6]
  CAT activity (mean): 132 cpm

## CCCCCCCCCCCCCCCC(=O)OCC(COC(=O)CCCCCCCCCCCCCCC)(COC(=O)CCCCCCCCCCCCCCC)NC(=O)[C@H](C)NC(=O)[C@H](CCCCN)NC(=O)[C@H](CCCCN)NC(=O)[C@H](CCCCN)NC(=O)[C@H](CCCCN)NC(=O)[C@@H](N)CCCCN [K5ATP3] (H-KKKKKA-{NHC(CH2O-Palmitoyl)3})
[2]; [6]
  CAT activity (mean): 1785 cpm
[2]; "x" peptide experiment c, CHO, 2 hours incubation of 20 μl lysate
  mean level of CAT activity: 6363
